The values below come from patent publication US5096918A, “Isoindoline nitromethane derivatives” (Imperial Chemical Industries PLC, priority 1989, dated 1992).

The assay has as its target T1, aldose reductase (Bos taurus, UniProt P16116).
T1 construct: isolated in known manner from bovine lenses; from tissue; host or cells: bovine lens
As to the kind of experiment: in vitro inhibition of partially purified aldose reductase (reduction of glucose to sorbitol, spectrophotometric). As to conditions: partially purified enzyme from bovine lenses. The class given is biochemical. As for the experimental part: Thus, partially purified aldose reductase is isolated in known manner from bovine lenses. The percentage inhibition of this enzyme's ability in vitro to catalyse the reduction of aldoses to polyhydric alcohols, and particularly to reduce glucose to sorbitol, caused by a test compound is then determined using standard spectrophotometric methods.

By IC50 is commonly meant the concentration that gives 50% inhibition. As for `O=[N+]([O-])CS(=O)(=O)N1CCOCC1` [N-(nitromethylsulphonyl)morpholine], half-maximal inhibition (IC50) was put at 880 nM.

The molecule `O=[N+]([O-])CS(=O)(=O)N1CCCCC1` [Example 1, N-(nitromethylsulphonyl)piperidine] came in with an IC50 of 330 nM.
